In DBAASP:
In brackets after ≈: the same amount, converted by molar mass. Blank lines part the entries; values can stand above or below the compound they belong to.

Columns and labels:
Test in all cases: ≥ marks a high value that may be exact or a test limit, other limits are often not marked, values filed in µg/mL are converted to µM
[1] = system: Bacillus subtilis ATCC 6633
[2] = system: Candida albicans ATCC 36232
[3] = system: Corynebacterium diphtheriae ATCC 8024
[4] = system: Escherichia coli ATCC 2592
[5] = system: Micrococcus luteus ATCC 9341
[6] = system: Pseudomonas aeruginosa ATCC 9027
[7] = system: Shigella flexneri ATCC 203
[8] = system: Staphylococcus aureus ATCC 6538
[9] = system: Staphylococcus aureus
[10] = system: Staphylococcus epidermidis ATCC 12228
[11] = system: Candida albicans ATCC 90028
[12] = system: Cryptococcus neoformans B3501
[13] = system: Escherichia coli ATCC 25922
[14] = system: Klebsiella pneumoniae ATCC 13833
[15] = system: Pseudomonas aeruginosa ATCC 27853
[16] = system: Staphylococcus aureus ATCC 25923
[17] = system: Escherichia coli C600
[18] = system: Pseudomonas aeruginosa PAO1
[19] = system: Staphylococcus aureus 209P
[20] = system: Aspergillus fumigatus
[21] = system: Bibersteinia trehalosi
[22] = system: Corynebacterium pseudotuberculosis ATCC 19410
[23] = system: Klebsiella pneumoniae
[24] = system: Mannheimia haemolytica Serovar 1
[25] = system: Mannheimia haemolytica Serovar 2
[26] = system: Mannheimia haemolytica Serovar 6
[27] = system: Pasteurella multocida
[28] = system: Salmonella enterica subsp. arizonae

MIC [1]: ≥ 102 µM | MIC [2]: ≥ 102 µM | MIC [3]: ≥ 102 µM | MIC [4]: ≥ 102 µM | MIC [5]: ≥ 102 µM | MIC [6]: > 102 µM | MIC [7]: ≥ 102 µM | MIC [8]: > 102 µM | MIC [9]: > 102 µM | MIC [10]: > 102 µM
Structure (SMILES): CC(C)[C@H](NC(=O)[C@H](CS)NC(=O)[C@@H](NC(=O)[C@H](CCCN=C(N)N)NC(=O)[C@H](CCCCN)NC(=O)CNC(=O)[C@H](CC(N)=O)NC(=O)[C@@H](N)CS)C(C)C)C(=O)N[C@@H](CS)C(N)=O [CNGKRVCVC]

MIC [11]: 8 µM (≈ 19.6 µg/mL) | MIC [12]: 2 µM (≈ 4.91 µg/mL) | MIC [13]: 4 µM (≈ 9.82 µg/mL) | MIC [14]: 4 µM (≈ 9.82 µg/mL) | MIC [15]: 8 µM (≈ 19.6 µg/mL) | MIC [16]: 4 µM (≈ 9.82 µg/mL)
Structure (SMILES): CC[C@H](C)[C@H](NC(=O)[C@H](Cc1cnc[nH]1)NC(=O)[C@H](C)NC(=O)[C@H](Cc1ccc(O)cc1)NC(=O)[C@@H](NC(=O)[C@H](CCCN=C(N)N)NC(=O)[C@H](Cc1ccccc1)NC(=O)[C@H](CC(C)C)NC(=O)[C@H](CCCN=C(N)N)NC(=O)[C@H](CCCCN)NC(=O)[C@H](CC(C)C)NC(=O)[C@@H](NC(=O)[C@@H](NC(=O)[C@H](CCCCN)NC(=O)[C@H](C)NC(=O)[C@@H](NC(=O)[C@H](CO)NC(=O)[C@H](CCSC)NC(=O)[C@@H](N)Cc1ccccc1)C(C)C)[C@@H](C)O)[C@@H](C)CC)C(C)C)C(=O)N[C@@H](Cc1ccc(O)cc1)C(N)=O [FMSVAKTILKRLFRVYAHIY]

MIC [17]: 1.56 µM (≈ 3.52 µg/mL) | MIC [18]: 6.25 µM (≈ 14.1 µg/mL) | MIC [19]: 3.13 µM (≈ 7.07 µg/mL)
Structure (SMILES): CC[C@H](C)[C@@H]1NC(=O)CNC(=O)[C@H](CCCN=C(N)N)NC(=O)[C@H](CCCN=C(N)N)NC(=O)[C@@H]2CSSC[C@H](NC1=O)C(=O)N[C@@H](Cc1ccc(O)cc1)C(=O)N[C@@H](CCCN=C(N)N)C(=O)N[C@@H](CCCN=C(N)N)C(=O)N[C@H](C(=O)N[C@@H](CCCN=C(N)N)C(=O)O)CSSC[C@H](NC(=O)[C@H](Cc1c[nH]c3ccccc13)NC(=O)[C@@H](N)CCCCN)C(=O)N[C@@H](Cc1ccccc1)C(=O)N[C@@H](CCCN=C(N)N)C(=O)N[C@@H](C(C)C)C(=O)N2 [KWCFRVCRRGICYRRCR]

MIC [17]: 0.8 µM (≈ 1.75 µg/mL) | MIC [18]: 3.13 µM (≈ 6.85 µg/mL) | MIC [19]: 3.13 µM (≈ 6.85 µg/mL)
Structure (SMILES): CC[C@H](C)[C@@H]1NC(=O)CNC(=O)[C@H](CCCN=C(N)N)NC(=O)[C@H](CO)NC(=O)[C@@H]2CSSC[C@H](NC1=O)C(=O)N[C@@H](Cc1ccc(O)cc1)C(=O)N[C@@H](CCCN=C(N)N)C(=O)N[C@@H](CCCN=C(N)N)C(=O)N[C@H](C(=O)N[C@@H](CCCN=C(N)N)C(=O)O)CSSC[C@H](NC(=O)[C@H](Cc1c[nH]c3ccccc13)NC(=O)[C@@H](N)CCCCN)C(=O)N[C@@H](Cc1ccccc1)C(=O)N[C@@H](CCCN=C(N)N)C(=O)N[C@@H](C(C)C)C(=O)N2 [KWCFRVCSRGICYRRCR]

MIC [11]: 16 µM (≈ 33 µg/mL) | MIC [12]: 4 µM (≈ 8.24 µg/mL) | MIC [13]: 8 µM (≈ 16.5 µg/mL) | MIC [14]: 8 µM (≈ 16.5 µg/mL) | MIC [15]: 16 µM (≈ 33 µg/mL) | MIC [16]: 8 µM (≈ 16.5 µg/mL)
Structure (SMILES): CC[C@H](C)[C@H](NC(=O)[C@H](CCCN=C(N)N)NC(=O)[C@H](CC(N)=O)NC(=O)[C@H](Cc1ccccc1)NC(=O)[C@H](CC(C)C)NC(=O)CNC(=O)[C@H](CCSC)NC(=O)[C@@H](N)CC(C)C)C(=O)N[C@H](C(=O)N[C@@H](CCCN=C(N)N)C(=O)N[C@@H](CCCCN)C(=O)N[C@H](C(=O)N[C@H](C(=O)N[C@@H](CCCCN)C(=O)N[C@@H](CC(C)C)C(=O)N[C@@H](Cc1ccccc1)C(=O)N[C@@H](CC(N)=O)C(N)=O)C(C)C)C(C)C)[C@@H](C)CC [LMGLFNRIIRKVVKLFN]

MIC [20]: 6.4 µM (≈ 13.3 µg/mL) | MIC [21]: 1.01 µM (≈ 2.1 µg/mL) | MIC [22]: 9.63 µM (≈ 20 µg/mL) | MIC [23]: 0.626 µM (≈ 1.3 µg/mL) | MIC [27]: 1.01 µM (≈ 2.1 µg/mL) | MIC [18]: 1.2 µM (≈ 2.5 µg/mL) | MIC [28]: 2.41 µM (≈ 5 µg/mL) | MIC [9]: 4.81 µM (≈ 10 µg/mL)
Structure (SMILES): CC[C@H](C)[C@H](NC(=O)[C@H](CCCN=C(N)N)NC(=O)[C@H](CCCN=C(N)N)NC(=O)[C@H](CC(C)C)NC(=O)[C@@H](N)CC(N)=O)C(=O)N[C@H](C(=O)N[C@@H](CCCN=C(N)N)C(=O)N[C@@H](CCCCN)C(=O)N[C@H](C(=O)N[C@H](C(=O)N[C@@H](Cc1cnc[nH]1)C(=O)N[C@H](C(=O)N[C@H](C(=O)N[C@@H](CCCCN)C(=O)N[C@@H](CCCCN)C(=O)N[C@@H](Cc1ccc(O)cc1)C(=O)O)[C@@H](C)CC)[C@@H](C)CC)[C@@H](C)CC)[C@@H](C)CC)[C@@H](C)CC [NLRRIIRKIIHIIKKY]
MIC [24]: 0.626 µM (≈ 1.3 µg/mL) | MIC [25]: 2.41 µM (≈ 5 µg/mL) | MIC [26]: 1.2 µM (≈ 2.5 µg/mL)

MIC [20]: 17.1 µM (≈ 26.7 µg/mL) | MIC [21]: 12.8 µM (≈ 20 µg/mL) | MIC [22]: 12.8 µM (≈ 20 µg/mL) | MIC [23]: > 12.8 µM | MIC [27]: 12.8 µM (≈ 20 µg/mL) | MIC [18]: 1.09 µM (≈ 1.7 µg/mL) | MIC [28]: 12.8 µM (≈ 20 µg/mL) | MIC [9]: > 12.8 µM
Structure (SMILES): CC[C@H](C)[C@H](NC(=O)[C@H](Cc1cnc[nH]1)NC(=O)[C@@H](NC(=O)[C@@H](NC(=O)[C@H](CCCCN)NC(=O)[C@H](CCCN=C(N)N)NC(=O)[C@@H](NC(=O)[C@@H](NC(=O)[C@H](CCCN=C(N)N)NC(=O)[C@@H](N)CCCN=C(N)N)[C@@H](C)CC)[C@@H](C)CC)[C@@H](C)CC)[C@@H](C)CC)C(=O)N[C@H](C(=O)N[C@@H](CCCCN)C(N)=O)[C@@H](C)CC [RRIIRKIIHIIK]
MIC [24]: 12.8 µM (≈ 20 µg/mL) | MIC [25]: 6.67 µM (≈ 10.4 µg/mL) | MIC [26]: 4.3 µM (≈ 6.7 µg/mL)
